Test results: patent publication US20150140002A1, “USE OF A PCSK9 INHIBITOR TO TREAT […]” (Sanofi, priority 2013, published 2015)
Marks after values point to notes of the source that are not given here.

Columns and labels:
[1] = test system: patients with primary hypercholesterolemia (heFH and non-FH) who are intolerant to statins; settings: human, in vivo
[2] = test system: patients with primary hypercholesterolemia (heFH and non-FH) who are intolerant to statins; assay: Example 3: randomized double-blind trial mAb316P versus ezetimibe (atorvastatin calibrator arm), lipid parameters; assay type: in vivo, human
Text: The present study was a randomized, double-blind, double-dummy, active-controlled, parallel-group, multi-national, multi-center study in patients with primary hypercholesterolemia and moderate, high, or very high CV risk who are intolerant to statins. The study design is illustrated in FIG. 7.
Primary Efficacy Endpoint: The primary efficacy endpoint was the percent change in calculated LDL-C from baseline to week 24, which was defined as: 100× (calculated LDL-C value at week 24—calculated LDL-C value at baseline)/calculated LDL-C value at baseline. A baseline LDL-C value was needed for each patient as the baseline calculated LDL-C value was the last LDL-C level obtained before the first double-blind study drug injection.
Total-C, HDL-C, TG, ApoB, ApoA-1, and Lp(a) were directly measured by a central laboratory as per a predetermined schedule. Low-density lipoprotein cholesterol was calculated using the Friedewald formula at all visits (except week −15 and the follow-up visit). If TG values exceeded 400 mg/dL (4.52 mmol/L), then the central lab measured (via the beta quantification method) the LDL-C rather than calculate it. Non-HDL-C was calculated by subtracting HDL-C from the total-C. Ratio ApoB/ApoA-1 was calculated.
The double-blind period efficacy endpoint analysis results in the order of statistical hierarchical testing as specified in the above protocol (with multiple testing controlled at the 0.05 significance level) is set forth in Table 12. Primary and key secondary efficacy analyses were performed comparing mAb316P-treated patients to ezetimibe-treated patients. For clarification, the ITT analysis is defined for patients in the ITT population and includes all endpoint assessments in an analysis window, regardless of study treatment dosing status (i.e. includes post-treatment assessments). The on-treatment analysis is defined for patients in the mITT population and includes all endpoint assessments from the first double-blind study drug (capsule or injection, whichever comes first) up to 21 days after the last double-blind study drug injection, or 3 days after the last capsule intake, whichever came first (i.e. includes assessments in the efficacy treatment period). Note: A result is statistically significant if the p-value is s 0.05, in the order of the hierarchical testing.

anti-mAb316P antibodies = assay: Example 2: anti-mAb316P antibody (ADA) bridging immunoassay and neutralizing antibody assay; assay type: in vivo, human; settings: in vivo
Procedure: Other endpoints Anti-MAb316P Antibody Assessments: Anti-mAb316P antibodies included the antibody status (positive/negative) and antibody titers.
Sampling time: Serum samples for anti-mAb316P antibody determination were drawn periodically throughout the study. The first scheduled sample at randomization visit was obtained before IMP injection (predose).
Anti-mAb316P antibody samples were analyzed using a validated non-quantitative, titer-based bridging immunoassay. It involved an initial screen, a confirmation assay based on drug specificity, and a measurement of the titer of anti-MAb316P antibodies in the sample. The lower limit of detection was approximately 1.5 ng/mL.
Samples that were positive in the ADA assay were assessed for neutralizing antibodies using a validated, non-quantitative, competitive ligand binding assay. The lower limit of detection based on a monoclonal positive control neutralizing antibody is 390 ng/mL.

[3] = test system: patients with hypercholesterolemia at moderate cardiovascular (CV) risk; assay: Example 2: safety (TEAEs, laboratory parameters, vital signs)
Text: The clinical laboratory data consisted of urinalysis and blood analysis, hematology (RBC count, red blood cell distribution width (RDW), reticulocyte count, hemoglobin, hematocrit, platelets, WBC count with differential blood count), standard chemistry (glucose, sodium, potassium, chloride, bicarbonate, calcium, phosphorous, urea nitrogen, creatinine, uric acid, total protein, LDH, albumin, γ Glutamyl Transferase [γGT]), Hepatitis C antibody, liver panel (ALT, AST, ALP, and total bilirubin), and CPK.
Safety endpoints—Vital signs measurement: Vital signs included: HR, systolic and diastolic BP in sitting position.
The safety analysis included all randomized and treated patients. Safety data were analyzed by descriptive statistics.

[4] = WK24, ITT analysis, listed as EZE
[5] = WK24, ITT analysis, listed as Ezetimibe

`O=C1[C@H](CC[C@H](O)c2ccc(F)cc2)[C@@H](c2ccc(O)cc2)N1c1ccc(F)cc1` [ezetimibe, reference compound] was tested, and the “Cardiac disorders (SOC)” value [1] was 6 (4.8%) patients (%), the “Ear and labyrinth disorders (SOC)” value [1] was 4 (3.2%) patients (%) and the “General allergic TEAEs (MedDRA SMQ Hypersensitivity)” value [1] was 9 (7.3%) patients (%). For the same compound, the “Investigations (SOC)” value [1] was 7 (5.6%) patients (%), the “Psychiatric disorders (SOC)” value [1] was 5 (4.0%) patients (%) and the “Skeletal muscle-related TEAEs (CMQ preferred term)” value [1] was 40 (32.3%) patients (%). For the same compound, the TEAEs [1] was 100 (80.6%) patients (%), the “Treatment-emergent SAEs” value [1] was 10 (8.1%) patients (%) and the “Treatment-emergent injection site reactions (ISRs)” value [1] was 6 (4.8%) patients (%). For the same compound, the Treatment-emergent neurocognitive disorders [1] was 2 (1.6%) patients (%), the “Treatment-emergent neurologic AEs” value [1] was 4 (3.2%) patients (%) and the “Treatment-emergent skeletal muscle-related events resulting in early treatment discontinuation” value [1] was 23 (18.5%) patients (%). For the same compound, the back pain [1] was 5.6%, the “early termination due to musculoskeletal and connective tissues disorders SOC events” value [1] was 26 [21.0%] patients [%] and the fatigue [1] was 3.2%. The headache [1] was 4.8%, the insomnia [1] was 2 (1.6%) reports (%) and the muscle spasms [1] was 7.3%. For the same compound, the muscular weakness [1] was 1.6%, the “non-cardiac chest pain (treatment-emergent SAE preferred term)” value [1] was 4 (3.2%) patients (%) and the palpitations [1] was 2 (1.6%) reports (%). The paraesthesia [1] was 0%, the “patients who prematurely discontinued study treatment due to a TEAE” value [1] was 31 (25.0%) patients (%) and the “patients who prematurely terminated study treatment due to adverse events” value [1] was 31 (24.8%) patients (%). The “rate of AEs” value [1] was 81%, the vertigo [1] was 2 (1.6%) reports (%) and the “Apo A-1 LS mean percent change from baseline” value ([2]; WK12, ITT analysis) was “LS mean: 3.9%”. For the same compound, the “Apo B LS mean percent change from baseline” value (“Apo B LS mean percent change” for short) ([2]; WK12, ITT analysis) was “LS mean: −11.6%”, the “Fasting Triglycerides LS mean percent change from baseline” value ([2]; WK12, ITT analysis) was “LS mean: −9.4%” and the “HDL-C LS mean percent change from baseline” value ([2]; WK12, ITT analysis) was “LS mean: 7.6%”. The “LDL-C LS mean percent change from baseline” value (from here on “LDL-C LS mean percent change”) ([2]; WK12, ITT analysis) was “LS mean: −15.6%”, the “Lp(a) LS mean percent change from baseline” value (“Lp(a) LS mean percent change” below) ([2]; WK12, ITT analysis) was “LS mean: −4.5%” and the “Non-HDL-C LS mean percent change from baseline” value (“Non-HDL-C LS mean percent change” below) ([2]; WK12, ITT analysis) was “LS mean: −15.8%”. The “Total Cholesterol LS mean percent change from baseline” value ([2]; WK12, ITT analysis) was “LS mean: −11.6%”, the “LDL-C LS mean percent change” value ([2]; WK12, on-treatment analysis) was “LS mean: −18.0%” and the “Apo A-1 LS mean percent change from baseline” value ([2]; WK24, ITT analysis) was “LS mean: 2.9%”. For the same compound, the “Fasting Triglycerides LS mean percent change from baseline” value ([2]; WK24, ITT analysis) was “LS mean: −3.5%”, the “HDL-C LS mean percent change from baseline” value ([2]; WK24, ITT analysis) was “LS mean: 6.8%” and the “LDL-C LS mean percent change” value ([2]; WK24, ITT analysis) was −14.6%. The “Proportion with LDL-C <70 mg/dL” value ([2]; WK24, ITT analysis) was “Proportion = 0.8%”, the “Proportion with Very High CV LDL-C <70 mg/dL OR Moderate/High CV LDL-C <100 mg/dL” value ([2]; WK24, ITT analysis) was “Proportion = 4.1%” and the “Total Cholesterol LS mean percent change from baseline” value ([2]; WK24, ITT analysis) was “LS mean: −10.9%”. For the same compound, the “Apo B LS mean percent change” value [2, 4] was −11.2* %, the “LDL-C LS mean percent change” value [2, 4] was -14.6% and the “Lp(a) LS mean percent change” value [2, 4] was −7.3* %. The “Non-HDL-C LS mean percent change” value [2, 4] was −14.6* %, the “Apo B LS mean percent change” value [2, 5] was “LS mean: −11.2%” and the “LDL-C LS mean percent change” value [2, 5] was “LS mean: −14.6%”. The “Lp(a) LS mean percent change” value [2, 5] was “LS mean: −7.3%”, the “Non-HDL-C LS mean percent change” value [2, 5] was “LS mean: −14.6%” and the “Apo B LS mean percent change” value ([2]; WK24, on-treatment analysis) was “LS mean: −14.4%”. The “LDL-C LS mean percent change” value ([2]; WK24, on-treatment analysis) was “LS mean: −17.1%”, the “Non-HDL-C LS mean percent change” value ([2]; WK24, on-treatment analysis) was “LS mean: −17.1%” and the “Proportion with LDL-C <70 mg/dL” value ([2]; WK24, on-treatment analysis) was “Proportion = 0.8%”. For the same compound, the “Proportion with Very High CV LDL-C <70 mg/dL OR Moderate/High CV LDL-C <100 mg/dL” value ([2]; WK24, on-treatment analysis) was “Proportion = 4.2%”, the “patients who reached LDL-C goal at week 24” value ([2]; goal <70 mg/dL very high risk, <100 mg/dL moderate and high risk) was 4.4% and the “LS mean LDL-C value at week 24” value ([2]; in vivo) was 159.9 mg/dL. The “change in LDL-C level from baseline” value ([2]; week 24) was -33 mg/dL, the “patients with treatment emergent anti-drug antibodies” value (anti-mAb316P antibodies) was “not observed” and the “Alanine aminotransferase (ALT) ≧3× ULN” value ([3]; Laboratory parameters) was 0/51. The “Alanine aminotransferase (ALT) ≧3× ULN (if baseline ALT <ULN) or ≧2× the baseline value (if baseline ALT ≧ULN)” value ([3]; Laboratory parameters) was 0/51, the “Albumin ≦25 g/L” value ([3]; Laboratory parameters) was 0/50 and the “Aspartate aminotransferase >3× ULN” value ([3]; Laboratory parameters) was 0/51. The “Glucose ≦70 mg/dL (3.9 mmol/L) and <LLN” value ([3]; Laboratory parameters) was 0/50, the “Patients with any TEAE” value ([3]; Safety Population) was 40 (78.4) n (%) and the “Patients with any TEAE leading to death” value ([3]; Safety Population) was 0 n (%). For the same compound, the “Patients with any TEAE leading to treatment discontinuation” value ([3]; Safety Population) was 4 (7.8) n (%), the “Patients with any treatment emergent SAE” value ([3]; Safety Population) was 1 (2.0) n (%) and the Arthralgia ([3]; TEAE) was 2 (3.9) n (%). The Diarrhea ([3]; TEAE) was 2 (3.9) n (%), the Dizziness ([3]; TEAE) was 3 (5.9) n (%) and the Headaches ([3]; TEAE) was 2 (3.9) n (%). The Nasopharyngitis ([3]; TEAE) was 8 (15.7) n (%), the Nausea ([3]; TEAE) was 3 (5.9) n (%) and the “Upper respiratory tract infection” value ([3]; TEAE) was 5 (9.8) n (%). For the same compound, the Urinary tract infection ([3]; TEAE) was 3 (5.9) n (%), the back pain ([3]; TEAE) was 3 (5.9) n (%) and the “General disorders and administration site conditions” value ([3]; TEAEs of interest) was 5 (9.8) n (%). For the same compound, the Injection site reaction ([3]; TEAEs of interest) was 2 (3.9) n (%), the Muscle disorders ([3]; TEAEs of interest) was 2 (3.9) n (%) and the “Musculoskeletal and connective tissue disorders” value ([3]; TEAEs of interest) was 11 (21.6) n (%). The “Musculoskeletal and connective tissue disorders NEC” value ([3]; TEAEs of interest) was 5 (9.8) n (%), the Musculoskeletal pain ([3]; TEAEs of interest) was 1 (2.0) n (%) and the Myalgia ([3]; TEAEs of interest) was 1 (2.0) n (%). The muscle spasms ([3]; TEAEs of interest) was 1 (2.0) n (%), the “Muscle-related AEs” value ([3]; discussion) was 4% and the “injection related AEs” value ([3]; disposable autoinjector) was less than 4%. For the same compound, the “Muscle-related TEAEs” value ([3]; in vivo) was 2 (4%) patients (%), the “overall percentage of patients who experienced at least one TEAE” value ([3]; in vivo) was 78% and the “patients with abnormalities in vital signs (blood pressure, heart rate)” value ([3]; in vivo) was no more than 2 patients. For the same compound, the “patients with blood glucose >126 mg/dL (7 mmol/L)” value ([3]; in vivo) was 1 patients, the “patients with elevated creatine kinase levels over 10 times the upper limit of normal” value ([3]; in vivo) was 1 patient and the TEAE class infection ([3]; mostly respiratory) was 39.2%.
